Assay results: ChEMBL document CHEMBL1125143, “Relationship between structure, conformational flexibility, and biological activity of agonists and antagonists at the N-methyl-D-aspartic acid subtype of excitatory amino acid receptors” (J Med Chem, 1990)
Activity calls are given as the source filed them. The calls are words filed in the database; no cut-off is given here.

Assays:
[1] = target: T1, Glutamate NMDA receptor (Rattus norvegicus) (UniProt P35439+Q00959+Q00960+Q00961+Q62645+Q8VHN2+Q9R1M7); assay: Agonistic activity against N-methyl-D-aspartate glutamate receptor was determined in rat cortical slice preparation at concentration up to 5 mM; Not active; assay type: functional
[2] = target: T1, Glutamate NMDA receptor (Rattus norvegicus); assay: Antagonistic activity against N-methyl-D-aspartate glutamate receptor antagonist was determined in rat cortical slice preparation at concentration up to 100 mM; Active; assay type: functional
[3] = target: T1, Glutamate NMDA receptor (Rattus norvegicus); assay: Effective dose required for agonistic activity against N-methyl-D-aspartate glutamate receptor was determined in rat cortical slice preparation; assay type: functional
[4] = target: T1, Glutamate NMDA receptor (Rattus norvegicus); assay: Antagonistic activity against N-methyl-D-aspartate glutamate receptor antagonist was determined in rat cortical slice preparation at concentration up to 100 mM; not active; assay type: functional
[5] = target: T1, Glutamate NMDA receptor (Rattus norvegicus)
[6] = target: T1, Glutamate NMDA receptor (Rattus norvegicus); assay: Antagonistic activity against N-methyl-D-aspartate glutamate receptor antagonist was determined in rat cortical slice preparation at concentration up to 1 mM; not active; assay type: functional
[7] = target: T1, Glutamate NMDA receptor (Rattus norvegicus); assay: Antagonistic activity against N-methyl-D-aspartate glutamate receptor antagonist was determined in rat cortical slice preparation at concentration up to 5 mM; not active; assay type: functional

Structure (SMILES)	ED50 [1]	ED50 [3]	further results
O=C(O)[C@H]1CCN[C@@H](C(=O)O)C1 (relative stereo)	inactive		A [2]: Active
O=C(O)[C@@H]1CCCN[C@H]1C(=O)O (relative stereo)		35 µM	
O=C(O)[C@H]1CCCN[C@H]1C(=O)O (relative stereo)		15 µM	NA [4]: inactive
CN[C@H](CC(=O)O)C(=O)O			ED50 [5]: 15 µM
O=C(O)[C@@H]1CC[C@H](C(=O)O)NC1 (relative stereo)			NA [6]: inactive
O=C(O)[C@H]1CC[C@H](C(=O)O)NC1 (relative stereo)	inactive		NA [7]: inactive
O=C(O)[C@@H]1CCN[C@@H](C(=O)O)C1 (relative stereo)		60 µM	
O=C(O)[C@@H]1CCC[C@H](C(=O)O)N1	inactive		NA [7]: inactive
